Laboratory results reported in patent US5382586A, “Aryl (or heteroaryl)piperazinylalkylazole derivatives, their preparation and their application as medicaments” (priority 1991, dated 1995).

What was measured:
[1] = test system: conditioned avoidance response in male Wistar rats; experiment: conditioned avoidance response test (inhibition of the conditioned avoidance response; anxiolytic/tranquillising activity); format: in vivo, rat (male Wistar); conditions: rat; for Activity % (inhibition of the conditioned avoidance response): D = 80 mg/kg, p.o., 45 min before test; for ED50: po, 0.75 h
Description: Male Wistar rats weighing 200 grammes which have been trained to jump over a barrier in an avoidance and escape cage (shuttle box) (Letica, reference LI 910 and LI 2700) within 30 seconds of their being introduced into the cage are used in this test.
The products having an anxiolytic or tranquillising activity suppress the conditioned avoidance response.
Training: day one: 11 trials at 3 minute intervals. Electric shock to the paws after 30 seconds (5 mA, 0.1 s, 10 s).
Days two and three: 2 trials per day, with the selected rats only [sum of the scores for the first day (with the exception of the first trial)>14].
Test day: groups formed by selected rats. Oral administration of the product or the vehicle 45 minutes before the start of the study.

[2] = test system: norepinephrine-induced death in rats; experiment: norepinephrine antagonism test in rats (antihypertensive activity); format: in vivo, rat (male Wister); conditions: for Activity % (norepinephrine antagonistic antihypertensive activity): D = 40 mg/kg, i.p., rat, norepinephrine 1.25 mg/kg i.v. after 2 hours; for ED50: Rattus norvegicus, ip, 2 h, read-out: ED50 (norepinephrine antagonistic antihypertensive activity)
Description: This activity is manifested by the protection of animals before death induced by an intravenous injection of norepinephrine, which produces a hypertensive attack in rats.
Male Wister rats weighing 200 grammes are used in this test. The product to be studied is administered intraperitoneally and 1.25 mg/kg (i.v.) of norepinephrine are administered after 2 hours.
The initial administration dose in these studies is 40 mg/kg (i.p.).

Structure (SMILES)	Activity % (inhibition of the conditioned avoidance response) [1] [%]	Activity % (norepinephrine antagonistic antihypertensive activity) [2] [%]	ED50 [1] [mg/kg]	ED50 [2] [mg/kg]
c1ccc(-c2c(-c3ccccc3)n(CCCCN3CCN(c4ncccn4)CC3)c3ccccc23)cc1 [Example 4]	30	0		
c1cnc(N2CCN(CCCCn3cccc3)CC2)nc1 [Example 1, 1-{4-[4-(2-pyrimidinyl)-1-piperazinyl]-butyl}pyrrole]	94	0	32.4	
COc1ccccc1N1CCN(CCCCn2cccc2)CC1 [Example 33]	99	100	23.9	2.23
Clc1nc2ccccc2n1CCCCN1CCN(c2ncccn2)CC1 [Example 20]	77	0	15.4	
Cc1nc(Cl)c(Cl)n1CCCCN1CCN(c2ncccn2)CC1 [Example 11, 4,5-dichloro-2-methyl-1-{4-[4-(2-pyrimidinyl)-1-piperazinyl]-butyl}-1H-imidazole]	82	0		
COc1ccccc1N1CCN(CCn2cc(Cl)cn2)CC1 [Example 41]	52	75		5
Clc1cccc(Cl)c1N=C1NCCN1 [Clonidine, reference compound]		100		1.58
Cc1nc(Cl)c(Cl)n1CCCCN1CCN(c2ccccc2)CC1 [Example 36]	76	100	42	7.6
